Data reported in patent US20230144436A1, “MUSCLE TARGETING COMPLEXES AND USES THEREOF FOR TREATING MYOTONIC DYSTROPHY” (Dyne Therapeutics, Inc., priority 2020, published 2023).

Test system: DMPK
Test: DMPK knockdown by transfected antisense oligonucleotides in DM1 C15 myotubes at 0.5 nM and 50 nM
Format: cell-based
Settings: 72 hours; for Normalized DMPK Remaining: relative to vehicle control = 1.00
In short: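 Seven-day-differentiated DM1 C15 myotubes transfected (Lipofectamine MessengerMax) with each oligonucleotide at 0.5 nM or 50 nM final, biological triplicates. After 72 h, DMPK mRNA quantified by qPCR, expressed relative to vehicle-only transfection set to 1.00.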

[1] = 0.5 nM oligonucleotide, qPCR, relative to vehicle control
[2] = 50 nM oligonucleotide, qPCR, relative to vehicle control

Row | Substance | Percent DMPK Reduction [1] | Normalized DMPK Remaining (0.5 nM oligonucleotide, qPCR) | Percent DMPK Reduction [2] | Normalized DMPK Remaining (50 nM oligonucleotide, qPCR) | Percent DMPK Reduction (0.5 nM oligonucleotide) | Normalized DMPK Remaining (0.5 nM oligonucleotide) | Percent DMPK Reduction (50 nM oligonucleotide) | Normalized DMPK Remaining (50 nM oligonucleotide)
1 | 273 (CUGUGCACGUAGCCAAGCCG; chemistry not given here) [compound 273] | 25.67% | 0.74 | 70.10% | 0.30 | – | – | – | –
2 | 302 (CCACGUAAUACUCCAUGACC; chemistry not given here) [compound 302] | 20.84% | 0.79 | 50.06% | 0.50 | – | – | – | –
3 | 363 (CAUGACCAGGUACAGGUAGU; chemistry not given here) [compound 363] | 19.39% | 0.81 | 59.09% | 0.41 | – | – | – | –
4 | 426 (CTGCAGUUUGCCCAUCCACG; chemistry not given here) [compound 426] | – | – | – | – | -10.69% | 1.11 | 60.08% | 0.40
5 | 287 (GCCAUCUCGGCCGGAAUCCG; chemistry not given here) [compound 287] | 18.56% | 0.81 | 86.39% | 0.14 | – | – | – | –
6 | 347 (GCUCAGCAGUGUCAGCAGGU; chemistry not given here) [compound 347] | 29.18% | 0.71 | 73.46% | 0.27 | – | – | – | –
7 | 298 (UGCUUCAUCUUCACUACCGC; chemistry not given here) [compound 298] | 28.82% | 0.71 | 60.24% | 0.40 | – | – | – | –
8 | 392 (UGCCUGCAGCAACUCCAUCC; chemistry not given here) [compound 392] | – | – | – | – | 13.99% | 0.86 | 49.75% | 0.50
9 | 341 (AGGGCGUCUGCCCAUAGAAC; chemistry not given here) [compound 341] | 13.23% | 0.87 | 58.98% | 0.41 | – | – | – | –
10 | 421 (GCGAAUACACCCAGCGCCCA; chemistry not given here) [compound 421] | – | – | – | – | 6.94% | 0.93 | 69.72% | 0.30
11 | 403 (UCUCCGCCAGGUAGAAGCGC; chemistry not given here) [compound 403] | – | – | – | – | 19.59% | 0.80 | 66.52% | 0.33
12 | 349 (UUUGCCCAUCCACGUCAGGG; chemistry not given here) [compound 349] | 32.79% | 0.67 | 59.36% | 0.41 | – | – | – | –
13 | 352 (AAAUACCGAGGAAUGUCGGG; chemistry not given here) [compound 352] | 11.25% | 0.89 | 50.91% | 0.49 | – | – | – | –
14 | 379 (CAGGUAGUUCUCAUCCUGGA; chemistry not given here) [compound 379] | – | – | – | – | 25.92% | 0.74 | 76.71% | 0.23
15 | 389 (CCGAGAGCAGCGCAAGUGAG; chemistry not given here) [compound 389] | – | – | – | – | 16.13% | 0.84 | 40.93% | 0.59
16 | 390 (UCCUGCAACUGCCGGACGUG; chemistry not given here) [compound 390] | – | – | – | – | 16.06% | 0.84 | 44.61% | 0.55

Row | Substance | Percent DMPK Reduction [1] | Normalized DMPK Remaining (0.5 nM oligonucleotide, qPCR) | Percent DMPK Reduction [2] | Normalized DMPK Remaining (50 nM oligonucleotide, qPCR) | Percent DMPK Reduction (0.5 nM oligonucleotide) | Normalized DMPK Remaining (0.5 nM oligonucleotide) | Percent DMPK Reduction (50 nM oligonucleotide) | Normalized DMPK Remaining (50 nM oligonucleotide)
17 | 381 (UAGUUCUCAUCCUGGAAGGC; chemistry not given here) [compound 381] | – | – | – | – | 16.83% | 0.83 | 43.88% | 0.56
18 | 470 (AUUUCAUAGGCGAAUACACC; chemistry not given here) [compound 470] | – | – | – | – | -4.54% | 1.05 | 44.15% | 0.56
19 | 447 (CAUCCAAAACGUGGAUUGGG; chemistry not given here) [compound 447] | – | – | – | – | 19.12% | 0.81 | 77.98% | 0.22
20 | 376 (GGCUCCUGGGCGGCGCCAGA; chemistry not given here) [compound 376] | 0.05% | 1.00 | 96.23% | 0.04 | – | – | – | –
21 | 395 (AAGGGCGUCUGCCCAUAGAA; chemistry not given here) [compound 395] | – | – | – | – | 13.15% | 0.87 | 34.56% | 0.65
22 | 284 (CACGUAAUACUCCAUGACCA; chemistry not given here) [compound 284] | 24.40% | 0.76 | 46.50% | 0.54 | – | – | – | –
23 | 277 (GACCAGGUACAGGUAGUUCU; chemistry not given here) [compound 277] | 42.85% | 0.57 | 70.95% | 0.29 | – | – | – | –
24 | 423 (GGCUCAGGCUCUGCCGGGUG; chemistry not given here) [compound 423] | – | – | – | – | 7.38% | 0.93 | 65.82% | 0.34
25 | 266 (AAUACUCCAUGACCAGGUAC; chemistry not given here) [compound 266] | 28.86% | 0.71 | 52.07% | 0.48 | – | – | – | –
26 | 424 (CCAUUCACCAACACGUCCCU; chemistry not given here) [compound 424] | – | – | – | – | 39.26% | 0.61 | 86.83% | 0.13
27 | 342 (UGGCCACAGCGGUCCAGCAG; chemistry not given here) [compound 342] | 29.59% | 0.70 | 69.44% | 0.31 | – | – | – | –
28 | 366 (UUUGGGCAGAUGGAGGGCCU; chemistry not given here) [compound 366] | 35.14% | 0.65 | 70.00% | 0.30 | – | – | – | –
29 | 265 (GUCGGGUUUGAUGUCCCUGU; chemistry not given here) [compound 265] | 28.89% | 0.71 | 64.15% | 0.36 | – | – | – | –
30 | 274 (UGCCCAUCCACGUCAGGGCC; chemistry not given here) [compound 274] | 13.63% | 0.86 | 33.09% | 0.67 | – | – | – | –
31 | 317 (AUCCGCUCCUGCAACUGCCG; chemistry not given here) [compound 317] | 12.80% | 0.87 | 40.06% | 0.60 | – | – | – | –
32 | 290 (GGCCAUGACAAUCUCCGCCA; chemistry not given here) [compound 290] | 42.38% | 0.58 | 75.00% | 0.25 | – | – | – | –
